Values joined by “and” are separate entries in the source; they are usually repeats but may differ in a detail not shown here. Identical values can stand only once.
Legend:
[1] = test system: in-house panel of 89–105 kinases; experiment: DSF selectivity screen; assay type: binding
Description: To investigate the selectivity profile of the different series, a differential scanning fluorimetry (DSF) assay was used. This assay offers a rapid and sensitive screening method that determines the denaturation temperature of a protein in absence and presence of a compound. This assay format measures the fluorescence of a dye, which depends on the folding state of the protein. The difference between the melting temperature (ΔTm) in the absence and presence of the compound represents the binding strength to the protein. We used an in-house panel of 89–105 kinases to screen all synthesized inhibitors (Tables S1–S3).
Measurements were performed in duplicates.

CAMKK2 = biological target: T1, CAMKK2 (Homo sapiens, UniProt Q96RR4); experiment: DSF; assay type: binding
T1 construct: purchased in-house DSF panel (SGC Frankfurt)
Protocol: (§3) Recombinant protein kinase domains with a concentration of 2 μM were mixed with a 10 μM compound solution in DMSO, 20 mM HEPES, pH 7.5, and 500 mM NaCl. SYPRO Orange (5000×, Invitrogen) was added as a fluorescence probe (1 µl per mL). Subsequently, temperature-dependent protein unfolding profiles were measured, using the QuantStudio™ 5 realtime PCR machine (Thermo Fisher, Waltham, MA, USA). […] The temperature was raised with a step rate of 3 °C per minute. Data points were analyzed with the internal software (Thermal Shift SoftwareTM Version 1.4, Thermo Fisher) using the Boltzmann equation to determine the inflection point of the transition curve [56]. Differences in melting temperature are given as ΔTm values in °C. Measurements were performed in duplicates.

FGFR2 = biological target: T2, FGFR2 (Homo sapiens, UniProt P21802); experiment: DSF; assay type: binding;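 further: compound tested at 10 µM with 2 µM protein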
T2 construct: purchased in-house DSF panel (SGC Frankfurt)
Protocol: as §3

CDK5/CDK5R1 = biological target: T3, CDK5/CDK5R1 (Homo sapiens, UniProt Q00535); experiment: NanoBRET; assay type: cell-based; settings: read-out: NanoBRET EC50 ± SEM CDK5/CDK5R1
T3 construct: Full-length kinases were obtained as plasmids cloned in frame with a terminal NanoLuc-fusion; CS1810C173 (CDK5R1); host or cells: HEK293T
Protocol: (§1) The assay was performed as described previously. In brief: Full-length kinases were obtained as plasmids cloned in frame with a terminal NanoLuc-fusion (Promega, Madison, WI, USA), as specified in table (Table S6). Plasmids were transfected into HEK293T cells using FuGENE HD (Promega, E2312) and proteins were allowed to express for 20h. Serially diluted inhibitor and NanoBRET Kinase Tracer (Promega) at a concentration determined previously as the KD,app (Table S5) were pipetted into white 384-well plates (Greiner 781207) using an Echo acoustic dispenser (Labcyte, San Jose, CA, USA). The corresponding protein-transfected cells were added and reseeded at a density of 2.5 × 10^5 cells/mL after trypsinization and resuspending in Opti-MEM without phenol red (Life Technologies, Carlsbad, CA, USA). The system was allowed to equilibrate for 2 h at 37 °C/5% CO2 prior to BRET measurements. To measure BRET, NanoBRET NanoGlo Substrate + Extracellular NanoLuc Inhibitor (Promega, N2540) was added as per the manufacturer’s protocol, and filtered luminescence was measured on a PHERAstar plate reader (BMG Labtech, Ortenberg, Germany) equipped with a luminescence filter pair (450 nm BP filter (donor) and 610 nm LP filter (acceptor)). Competitive displacement data were then graphed using GraphPad Prism 9 software using a normalized 3-parameter curve fit with the following equation: Y = 100/(1 + 10^(X–LogEC50)).

CDK5/CDK5R2 = biological target: T4, CDK5/CDK5R2 (Homo sapiens, UniProt Q00535); experiment: NanoBRET; assay type: cell-based; settings: read-out: NanoBRET EC50 ± SEM CDK5/CDK5R2
T4 construct: Full-length kinases were obtained as plasmids cloned in frame with a terminal NanoLuc-fusion; CS1810C174 (CDK5R2); host or cells: HEK293T
Protocol: as §1

CDK1/Cyclin B1 = biological target: T5, CDK1/Cyclin B1 (Homo sapiens, UniProt P06493); experiment: NanoBRET; assay type: cell-based; settings: read-out: NanoBRET EC50 ± SEM CDK1/Cyclin B1
T5 construct: Full-length kinases were obtained as plasmids cloned in frame with a terminal NanoLuc-fusion; CS1810C170 (CCNB1); host or cells: HEK293T
Protocol: as §1

FGFR1 = biological target: T6, FGFR1 (Homo sapiens, UniProt P11362); experiment: DSF; assay type: binding
T6 construct: purchased in-house DSF panel (SGC Frankfurt)
Protocol: (§2) Recombinant protein kinase domains with a concentration of 2 μM were mixed with a 10 μM compound solution in DMSO, 20 mM HEPES, pH 7.5, and 500 mM NaCl. SYPRO Orange (5000×, Invitrogen) was added as a fluorescence probe (1 µl per mL). Subsequently, temperature-dependent protein unfolding profiles were measured, using the QuantStudio™ 5 realtime PCR machine (Thermo Fisher, Waltham, MA, USA). […] The temperature was raised with a step rate of 3 °C per minute. Data points were analyzed with the internal software (Thermal Shift SoftwareTM Version 1.4, Thermo Fisher) using the Boltzmann equation to determine the inflection point of the transition curve. Differences in melting temperature are given as ΔTm values in °C. Measurements were performed in duplicates.

PKMYT1 = biological target: T7, PKMYT1 (Homo sapiens, UniProt Q99640); experiment: DSF; assay type: binding
T7 construct: purchased in-house DSF panel (SGC Frankfurt)
T7 sequence (Q99640 75-362): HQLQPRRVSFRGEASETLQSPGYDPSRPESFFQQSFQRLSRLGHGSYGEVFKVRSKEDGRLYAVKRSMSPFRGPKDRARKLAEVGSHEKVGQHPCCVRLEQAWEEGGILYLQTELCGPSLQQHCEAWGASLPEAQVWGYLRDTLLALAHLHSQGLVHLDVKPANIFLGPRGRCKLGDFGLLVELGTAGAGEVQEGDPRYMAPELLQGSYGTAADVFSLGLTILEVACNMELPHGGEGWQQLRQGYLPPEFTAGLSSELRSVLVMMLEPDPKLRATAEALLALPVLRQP
Protocol: as §2

PHKG2 = biological target: T8, PHKG2 (Homo sapiens, UniProt P15735); experiment: DSF; assay type: binding
T8 construct: purchased in-house DSF panel (SGC Frankfurt)
T8 sequence (P15735 6-293): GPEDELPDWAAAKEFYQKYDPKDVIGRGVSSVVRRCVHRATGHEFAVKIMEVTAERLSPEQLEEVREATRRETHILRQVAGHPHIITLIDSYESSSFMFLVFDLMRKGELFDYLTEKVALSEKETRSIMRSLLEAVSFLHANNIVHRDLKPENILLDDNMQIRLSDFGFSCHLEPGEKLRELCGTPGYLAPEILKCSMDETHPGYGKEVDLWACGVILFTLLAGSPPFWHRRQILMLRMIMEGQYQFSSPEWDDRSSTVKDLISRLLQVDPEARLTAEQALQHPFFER
Protocol: as §2

EPHB1 = biological target: T9, EPHB1 (Homo sapiens, UniProt P54762); experiment: DSF; assay type: binding
T9 construct: purchased in-house DSF panel (SGC Frankfurt)
Protocol: as §3

NEK7 = biological target: T10, NEK7 (Homo sapiens, UniProt Q8TDX7); experiment: DSF; assay type: binding
T10 construct: purchased in-house DSF panel (SGC Frankfurt)
T10 sequence (Q8TDX7 whole entry): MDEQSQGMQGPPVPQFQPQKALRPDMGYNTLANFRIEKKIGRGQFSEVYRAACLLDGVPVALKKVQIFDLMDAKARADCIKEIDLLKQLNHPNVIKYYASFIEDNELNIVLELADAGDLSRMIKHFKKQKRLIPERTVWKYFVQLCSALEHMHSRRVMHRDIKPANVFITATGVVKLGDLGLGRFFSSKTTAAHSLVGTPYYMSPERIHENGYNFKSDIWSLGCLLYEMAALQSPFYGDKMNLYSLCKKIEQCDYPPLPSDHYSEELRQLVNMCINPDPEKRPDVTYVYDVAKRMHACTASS
Protocol: as §3

T6 sequence (P11362 456-765): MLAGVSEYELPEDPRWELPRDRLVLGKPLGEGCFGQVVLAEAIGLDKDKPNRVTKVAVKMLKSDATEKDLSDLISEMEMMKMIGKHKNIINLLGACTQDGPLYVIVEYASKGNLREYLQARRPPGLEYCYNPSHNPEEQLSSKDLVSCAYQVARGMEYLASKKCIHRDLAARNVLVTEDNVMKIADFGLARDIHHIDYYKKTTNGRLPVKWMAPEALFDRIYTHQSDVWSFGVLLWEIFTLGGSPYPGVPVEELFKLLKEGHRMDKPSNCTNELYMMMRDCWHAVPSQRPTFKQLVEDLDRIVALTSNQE
T2 sequence (P21802 458-770): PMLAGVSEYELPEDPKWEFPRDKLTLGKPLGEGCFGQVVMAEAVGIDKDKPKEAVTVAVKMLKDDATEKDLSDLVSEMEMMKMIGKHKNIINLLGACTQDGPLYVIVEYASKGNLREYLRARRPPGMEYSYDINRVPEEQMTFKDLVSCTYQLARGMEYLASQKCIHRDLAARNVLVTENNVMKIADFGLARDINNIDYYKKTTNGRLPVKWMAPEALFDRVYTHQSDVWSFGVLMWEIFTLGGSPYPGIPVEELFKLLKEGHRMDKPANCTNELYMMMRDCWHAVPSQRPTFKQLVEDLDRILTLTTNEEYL
T1 sequence (Q96RR4 161-449): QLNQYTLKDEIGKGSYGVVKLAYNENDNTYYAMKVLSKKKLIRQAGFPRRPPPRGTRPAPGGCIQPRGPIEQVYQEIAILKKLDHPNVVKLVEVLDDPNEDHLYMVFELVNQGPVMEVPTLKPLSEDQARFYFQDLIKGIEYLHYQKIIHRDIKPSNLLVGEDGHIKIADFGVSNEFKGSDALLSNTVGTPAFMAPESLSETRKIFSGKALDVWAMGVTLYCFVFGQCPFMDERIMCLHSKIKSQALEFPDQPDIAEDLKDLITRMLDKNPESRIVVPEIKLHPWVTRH
T4 sequence (Q00535 whole entry, the tested form may be a part): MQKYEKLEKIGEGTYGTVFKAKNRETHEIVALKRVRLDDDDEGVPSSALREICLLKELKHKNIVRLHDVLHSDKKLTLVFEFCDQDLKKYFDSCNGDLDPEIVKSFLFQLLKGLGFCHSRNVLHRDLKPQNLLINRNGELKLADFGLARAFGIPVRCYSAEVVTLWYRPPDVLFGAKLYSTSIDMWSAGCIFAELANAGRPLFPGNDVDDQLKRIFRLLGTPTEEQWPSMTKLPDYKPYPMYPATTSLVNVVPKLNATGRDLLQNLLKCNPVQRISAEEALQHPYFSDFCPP
T4 sequence (Q13319 whole entry partner, the tested form may be a part): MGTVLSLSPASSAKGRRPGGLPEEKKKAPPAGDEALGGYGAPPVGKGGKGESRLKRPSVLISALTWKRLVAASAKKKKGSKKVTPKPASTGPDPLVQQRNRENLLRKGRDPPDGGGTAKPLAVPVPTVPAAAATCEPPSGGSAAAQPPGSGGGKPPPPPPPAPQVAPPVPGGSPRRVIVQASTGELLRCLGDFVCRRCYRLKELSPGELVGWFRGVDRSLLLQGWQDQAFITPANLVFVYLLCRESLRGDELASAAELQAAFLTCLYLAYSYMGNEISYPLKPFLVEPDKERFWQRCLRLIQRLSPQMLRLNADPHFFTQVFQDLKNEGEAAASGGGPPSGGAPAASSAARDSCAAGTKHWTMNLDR
T3 sequence (Q00535 whole entry, the tested form may be a part): as the sequence (Q00535 whole entry, the tested form may be a part) above
T3 sequence (Q15078 whole entry partner, the tested form may be a part): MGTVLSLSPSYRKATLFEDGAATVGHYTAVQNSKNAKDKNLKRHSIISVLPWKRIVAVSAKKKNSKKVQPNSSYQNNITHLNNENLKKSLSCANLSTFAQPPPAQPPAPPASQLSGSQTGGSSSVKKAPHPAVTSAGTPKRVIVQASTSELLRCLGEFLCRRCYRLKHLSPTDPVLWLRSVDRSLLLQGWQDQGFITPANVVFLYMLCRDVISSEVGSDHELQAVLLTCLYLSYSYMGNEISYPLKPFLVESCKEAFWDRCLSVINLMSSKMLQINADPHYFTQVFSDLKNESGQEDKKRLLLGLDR
T5 sequence (P06493 whole entry, the tested form may be a part): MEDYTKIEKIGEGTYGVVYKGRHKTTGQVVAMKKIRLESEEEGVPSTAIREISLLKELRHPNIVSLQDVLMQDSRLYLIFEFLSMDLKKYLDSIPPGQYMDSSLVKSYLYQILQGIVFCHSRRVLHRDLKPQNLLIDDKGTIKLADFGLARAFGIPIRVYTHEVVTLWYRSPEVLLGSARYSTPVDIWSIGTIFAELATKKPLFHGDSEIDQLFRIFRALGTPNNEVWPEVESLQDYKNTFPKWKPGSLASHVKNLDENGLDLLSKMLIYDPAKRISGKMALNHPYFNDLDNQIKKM
T5 sequence (P14635 whole entry partner, the tested form may be a part): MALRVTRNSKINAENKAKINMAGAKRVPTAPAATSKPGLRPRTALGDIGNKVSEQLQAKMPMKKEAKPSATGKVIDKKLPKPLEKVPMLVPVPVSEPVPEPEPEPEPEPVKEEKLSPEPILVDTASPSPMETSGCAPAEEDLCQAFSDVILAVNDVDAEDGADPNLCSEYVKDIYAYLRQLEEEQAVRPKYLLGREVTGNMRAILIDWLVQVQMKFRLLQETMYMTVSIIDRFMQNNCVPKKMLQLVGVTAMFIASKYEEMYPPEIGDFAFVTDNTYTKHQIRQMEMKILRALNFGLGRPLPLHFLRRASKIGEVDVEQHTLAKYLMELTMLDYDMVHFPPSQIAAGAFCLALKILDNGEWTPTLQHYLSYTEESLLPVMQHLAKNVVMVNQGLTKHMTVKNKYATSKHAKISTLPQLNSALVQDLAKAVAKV
T9 sequence (P54762 602-896): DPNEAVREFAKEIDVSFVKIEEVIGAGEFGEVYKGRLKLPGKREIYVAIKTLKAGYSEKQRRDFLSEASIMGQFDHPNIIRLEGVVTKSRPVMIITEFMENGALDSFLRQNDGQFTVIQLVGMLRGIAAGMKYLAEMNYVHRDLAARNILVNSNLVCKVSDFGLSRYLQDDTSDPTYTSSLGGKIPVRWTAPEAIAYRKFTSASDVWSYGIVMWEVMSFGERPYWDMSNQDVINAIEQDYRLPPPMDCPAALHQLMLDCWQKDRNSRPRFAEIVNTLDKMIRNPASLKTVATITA

Row | Compound | Kinases with shifts > 5°C ([1]; number of kinases of the DSF panel) | ΔTm CAMKK2 (CAMKK2) | ΔTm FGFR2 (FGFR2) | EC50 (CDK5/CDK5R1) | EC50 (CDK5/CDK5R2) | EC50 (CDK1/Cyclin B1) | ΔTm FGFR1 (FGFR1) | ΔTm PKMYT1 (PKMYT1) | ΔTm PHKG2 (PHKG2) | kinases beside CDK16 with DSF shift >5 °C (potential off-targets) [1] | ΔTm EPHB1 (EPHB1) | ΔTm NEK7 (NEK7)
1 | COC(=O)c1cc(Nc2ccnc(NCc3ccc(NC(=O)OC(C)(C)C)cc3)n2)[nH]n1 [21i, methyl 5-((2-((4-((tert-butoxycarbonyl)amino)benzyl)amino)pyrimidin-4-yl)amino)-1H-pyrazole-3-carboxylate] | 4–9 | 1.1 °C | 0.2 °C | 28.6 ± 4.65 µM | 38.6 ± 5.85 µM | 9.3 ± 5.79 µM | 0.0 °C | 0.2 °C | -0.3 °C | – | – | –
2 | CC(C)(C)OC(=O)Nc1ccc(CNc2nccc(Nc3cc(C(=O)OC(C)(C)C)[nH]n3)n2)cc1 [43d, tert-butyl 3-((2-((4-((tert-butoxycarbonyl)amino)benzyl)amino)pyrimidin-4-yl)amino)-1H-pyrazole-5-carboxylate] | – | 0.1 °C | 0.3 °C | – | – | – | 0.6 °C | -2.0 °C | 0.5 °C | 1–2 and 2 | 1.0 °C | -1.0 °C
3 | COC(=O)c1cc(Nc2ccnc(NCCOCCNC(=O)OC(C)(C)C)n2)[nH]n1 [21d, methyl 5-((2-((2-(2-((tert-butoxycarbonyl)amino)ethoxy)ethyl)amino)pyrimidin-4-yl)amino)-1H-pyrazole-3-carboxylate] | – | 0.5 °C | 1.5 °C | – | – | – | 0.5 °C | 1.0 °C | 0.5 °C | – | – | –
4 | CC(C)OC(=O)c1cc(Nc2ccnc(NCc3ccc(NC(=O)OC(C)(C)C)cc3)n2)n[nH]1 [42d, isopropyl 3-((2-((4-((tert-butoxycarbonyl)amino)benzyl)amino)pyrimidin-4-yl)amino)-1H-pyrazole-5-carboxylate] | – | -0.6 °C | 0.1 °C | – | – | – | 0.4 °C | -3.2 °C | -0.2 °C | 1–2 and 1 | 0.9 °C | -1.7 °C
5 | N#CCc1ccc(Nc2nccc(Nc3cc(C4CC4)[nH]n3)n2)cc1 [compound 1, reference compound] | – | 12.0 °C | 5.9 °C | 0.0303 ± 0.0103 µM | 0.0119 ± 0.0028 µM | 0.0631 ± 0.0104 µM | 4.5 °C | 1.0 °C | 8.8 °C | – | – | –

— PMC9736855, “Discovery of 3-Amino-1H-pyrazole-Based Kinase Inhibitors to Illuminate the Understudied PCTAIRE Family” (International Journal of Molecular Sciences, 2022)
